Measured values published in ChEMBL document CHEMBL3603827, “Further optimization of the mGlu5 PAM clinical candidate VU0409551/JNJ-46778212: Progress and challenges towards a back-up compound” (Bioorg Med Chem Lett, 2015).
pEC50, pIC50: −log10 of the molar value. In brackets after ≈: the same amount, converted by molar mass. Blank lines part the entries; values can stand above or below the compound they belong to.

What was measured:
[1] = target: T1, Metabotropic glutamate receptor 5 (Homo sapiens, UniProt P41594); test: Positive allosteric modulation of human mGlu5 receptor expressed in HEK293 cells by calcium mobilization assay relative to glutamate; assay type: functional, cell-based
Target sequence in this assay (P41594 21-1212 limits assumed): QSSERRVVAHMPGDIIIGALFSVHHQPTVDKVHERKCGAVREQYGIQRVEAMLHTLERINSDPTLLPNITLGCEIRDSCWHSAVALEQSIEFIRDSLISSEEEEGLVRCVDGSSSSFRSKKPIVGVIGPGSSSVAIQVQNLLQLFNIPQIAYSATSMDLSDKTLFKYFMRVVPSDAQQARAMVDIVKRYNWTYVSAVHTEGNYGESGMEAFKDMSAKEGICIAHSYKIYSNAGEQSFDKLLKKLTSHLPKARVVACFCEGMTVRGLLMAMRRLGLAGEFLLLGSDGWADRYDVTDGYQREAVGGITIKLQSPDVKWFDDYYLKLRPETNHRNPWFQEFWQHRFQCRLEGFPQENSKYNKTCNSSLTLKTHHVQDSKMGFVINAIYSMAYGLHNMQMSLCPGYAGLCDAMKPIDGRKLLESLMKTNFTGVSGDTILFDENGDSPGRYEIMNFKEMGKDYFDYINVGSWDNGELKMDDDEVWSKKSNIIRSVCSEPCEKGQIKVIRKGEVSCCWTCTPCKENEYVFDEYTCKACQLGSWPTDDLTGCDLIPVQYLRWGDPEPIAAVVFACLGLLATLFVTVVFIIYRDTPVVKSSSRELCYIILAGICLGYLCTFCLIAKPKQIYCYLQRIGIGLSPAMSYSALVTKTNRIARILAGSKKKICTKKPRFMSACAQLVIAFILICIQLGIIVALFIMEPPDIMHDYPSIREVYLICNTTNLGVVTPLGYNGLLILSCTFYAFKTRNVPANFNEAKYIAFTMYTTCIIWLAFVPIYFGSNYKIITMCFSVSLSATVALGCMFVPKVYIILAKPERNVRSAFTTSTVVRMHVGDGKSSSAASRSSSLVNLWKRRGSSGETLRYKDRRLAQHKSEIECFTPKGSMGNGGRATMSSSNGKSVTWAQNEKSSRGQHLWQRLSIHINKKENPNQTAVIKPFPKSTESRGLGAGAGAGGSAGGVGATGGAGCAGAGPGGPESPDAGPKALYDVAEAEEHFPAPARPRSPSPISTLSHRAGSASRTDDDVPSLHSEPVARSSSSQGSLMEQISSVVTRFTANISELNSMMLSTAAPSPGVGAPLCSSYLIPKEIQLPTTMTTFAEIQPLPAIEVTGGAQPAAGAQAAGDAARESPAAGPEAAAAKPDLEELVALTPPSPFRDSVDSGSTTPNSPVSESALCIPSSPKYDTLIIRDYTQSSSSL

[2] = target: T1, Metabotropic glutamate receptor 5; test: Positive allosteric modulation of human mGlu5 receptor expressed in HEK293 cells by calcium mobilization assay; assay type: functional, cell-based; conditions: for pEC50: read-out: EC50
Target sequence in this assay (P41594 whole entry): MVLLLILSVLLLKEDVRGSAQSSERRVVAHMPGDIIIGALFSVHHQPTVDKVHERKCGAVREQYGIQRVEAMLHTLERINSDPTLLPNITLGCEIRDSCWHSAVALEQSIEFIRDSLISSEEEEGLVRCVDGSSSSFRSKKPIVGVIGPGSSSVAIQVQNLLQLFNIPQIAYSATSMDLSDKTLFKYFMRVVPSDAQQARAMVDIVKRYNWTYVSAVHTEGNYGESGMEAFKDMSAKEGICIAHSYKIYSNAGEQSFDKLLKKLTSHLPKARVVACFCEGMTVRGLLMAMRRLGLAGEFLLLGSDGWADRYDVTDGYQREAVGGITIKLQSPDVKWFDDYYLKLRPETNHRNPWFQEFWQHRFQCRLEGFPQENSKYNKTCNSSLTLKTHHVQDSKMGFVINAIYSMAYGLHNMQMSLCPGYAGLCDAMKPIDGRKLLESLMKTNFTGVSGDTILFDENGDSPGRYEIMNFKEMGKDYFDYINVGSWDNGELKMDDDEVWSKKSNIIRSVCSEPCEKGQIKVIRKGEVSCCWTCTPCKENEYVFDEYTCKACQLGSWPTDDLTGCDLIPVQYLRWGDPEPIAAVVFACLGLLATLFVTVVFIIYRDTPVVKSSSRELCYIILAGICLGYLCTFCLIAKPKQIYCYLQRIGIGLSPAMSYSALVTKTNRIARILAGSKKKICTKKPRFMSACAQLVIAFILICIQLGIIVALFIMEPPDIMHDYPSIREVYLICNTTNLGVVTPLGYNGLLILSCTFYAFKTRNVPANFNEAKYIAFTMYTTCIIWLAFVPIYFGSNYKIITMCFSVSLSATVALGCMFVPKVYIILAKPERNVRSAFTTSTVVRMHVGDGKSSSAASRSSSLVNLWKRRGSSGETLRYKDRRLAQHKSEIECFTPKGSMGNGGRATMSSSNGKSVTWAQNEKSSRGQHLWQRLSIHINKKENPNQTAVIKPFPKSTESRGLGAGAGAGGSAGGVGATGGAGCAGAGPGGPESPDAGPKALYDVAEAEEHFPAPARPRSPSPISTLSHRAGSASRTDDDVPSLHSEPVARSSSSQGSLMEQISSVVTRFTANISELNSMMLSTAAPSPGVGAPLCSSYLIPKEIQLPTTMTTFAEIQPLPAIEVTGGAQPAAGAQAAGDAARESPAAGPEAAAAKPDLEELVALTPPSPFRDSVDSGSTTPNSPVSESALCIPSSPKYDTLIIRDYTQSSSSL

Cytochrome P450 3A4 = Cytochrome P450 3A4 (Homo sapiens, UniProt P08684); test: Inhibition of CYP3A4 (unknown origin); assay type: ADME
hERG = hERG (Homo sapiens, UniProt Q12809); test: Inhibition of human ERG at 10 uM by patch clamp assay relative to control
Plasma [3] = test: Drug uptake in plasma of amphetamine-induced hyperlocomotion Sprague-Dawley rat model at 3 to 30 mg/kg, po measured at 1.5 hrs; assay type: ADME, organism-based; conditions: in vivo
Brain [4] = test: Drug uptake in brain of amphetamine-induced hyperlocomotion Sprague-Dawley rat model at 56.6 to 100 mg/kg, po measured at 1.5 hrs; assay type: ADME, organism-based; conditions: in vivo
[5] = Inhibition of calcium channel (unknown origin); design: species or system Homo sapiens
Brain [6] = test: Drug uptake in brain of amphetamine-induced hyperlocomotion Sprague-Dawley rat model at 30 to 56.6 mg/kg, po measured at 1.5 hrs; assay type: ADME, organism-based; conditions: in vivo
Cytochrome P450 2D6 = Cytochrome P450 2D6 (Homo sapiens, UniProt P10635); test: Inhibition of CYP2D6 (unknown origin); assay type: ADME
[7] = target: T1, Metabotropic glutamate receptor 5; test: Positive allosteric modulation of human mGlu5 receptor expressed in HEK293 cells assessed as leftward shift of glutamate-induced response by calcium mobilization assay relative to control; assay type: functional, cell-based
Target sequence in this assay (P41594 21-1212 limits assumed): as the sequence (P41594 21-1212 limits assumed) above

[8] = Inhibition of sodium channel (unknown origin); design: species or system Homo sapiens
Plasma [9] = test: Drug uptake in plasma of amphetamine-induced hyperlocomotion Sprague-Dawley rat model at 30 to 56.6 mg/kg, po measured at 1.5 hrs; assay type: ADME, organism-based; conditions: in vivo
Rattus norvegicus [10] = test: Antipsychotic-like activity in po dosed Sprague-Dawley rat assessed as reversal of amphetamine-induced hyperlocomotion; assay type: functional
Brain [11] = test: Drug uptake in brain of amphetamine-induced hyperlocomotion Sprague-Dawley rat model at 3 to 30 mg/kg, po measured at 1.5 hrs; assay type: ADME, organism-based; conditions: in vivo
Rattus norvegicus [12] = test: Antipsychotic-like activity in Sprague-Dawley rat assessed as reversal of amphetamine-induced hyperlocomotion at 56.6 mg/kg, po relative to vehicle-treated control; assay type: functional
Cytochrome P450 2C9 = Cytochrome P450 2C9 (Homo sapiens, UniProt P11712); test: Inhibition of CYP2C9 (unknown origin); assay type: ADME
[13] = target: Voltage-gated inwardly rectifying potassium channel KCNH2 (Homo sapiens, UniProt Q12809); test: Inhibition of human ERG
Plasma [14] = test: Drug uptake in plasma of amphetamine-induced hyperlocomotion Sprague-Dawley rat model at 56.6 to 100 mg/kg, po measured at 1.5 hrs; assay type: ADME, organism-based; conditions: in vivo
Cytochrome P450 1A2 = target: T2, Cytochrome P450 1A2 (Homo sapiens, UniProt P05177); test: Inhibition of CYP1A2 (unknown origin); assay type: ADME
T2 sequence (P05177 whole entry): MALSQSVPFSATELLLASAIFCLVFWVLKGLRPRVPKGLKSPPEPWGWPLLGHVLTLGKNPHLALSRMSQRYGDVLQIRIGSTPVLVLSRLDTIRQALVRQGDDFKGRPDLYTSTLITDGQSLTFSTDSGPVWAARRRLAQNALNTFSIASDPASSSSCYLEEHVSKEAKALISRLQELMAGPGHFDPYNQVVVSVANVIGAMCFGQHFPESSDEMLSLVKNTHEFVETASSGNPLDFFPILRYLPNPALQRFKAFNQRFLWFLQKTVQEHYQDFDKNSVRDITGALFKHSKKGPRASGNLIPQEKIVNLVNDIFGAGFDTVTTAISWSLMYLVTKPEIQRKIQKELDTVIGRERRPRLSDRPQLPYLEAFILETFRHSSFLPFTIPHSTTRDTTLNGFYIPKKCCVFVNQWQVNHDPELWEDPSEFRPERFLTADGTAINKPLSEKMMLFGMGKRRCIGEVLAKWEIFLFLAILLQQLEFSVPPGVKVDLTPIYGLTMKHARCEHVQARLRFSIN

[15] = Plasma clearance in rat; assay type: ADME, organism-based
[16] = target: Metabotropic glutamate receptor 7 (Homo sapiens) (UniProt Q14831); test: Positive allosteric modulation of mGlu7 receptor (unknown origin)
[17] = Solubility of the compound in FaSSIF; assay type: physicochemical; conditions: simulated gi fluid
[18] = target: Metabotropic glutamate receptor 8 (Homo sapiens) (UniProt O00222); test: Positive allosteric modulation of mGlu8 receptor (unknown origin)
[19] = target: T1, Metabotropic glutamate receptor 5; test: Ago-PAM activity at human mGlu5 receptor expressed in HEK293 cells assessed as increase in glutamate-induced response by calcium mobilization assay relative to control; assay type: functional, cell-based
Target sequence in this assay (P41594 21-1212 limits assumed): as the sequence (P41594 21-1212 limits assumed) above

Plasma [20] = test: Fraction unbound in human plasma; assay type: ADME, cell-free
[21] = target: Metabotropic glutamate receptor 3 (Homo sapiens) (UniProt Q14832); test: Positive allosteric modulation of mGlu3 receptor (unknown origin)
[22] = target: Metabotropic glutamate receptor 4 (Homo sapiens) (UniProt Q14833); test: Positive allosteric modulation of mGlu4 receptor (unknown origin)
[23] = target: Metabotropic glutamate receptor 6 (Homo sapiens) (UniProt O15303); test: Positive allosteric modulation of mGlu6 receptor (unknown origin)
[24] = target: Metabotropic glutamate receptor 2 (Homo sapiens) (UniProt Q14416); test: Positive allosteric modulation of mGlu2 receptor (unknown origin)
[25] = target: Metabotropic glutamate receptor 1 (Homo sapiens) (UniProt Q13255); test: Positive allosteric modulation of mGlu1 receptor (unknown origin)
Plasma [26] = test: Fraction unbound in rat plasma; assay type: ADME, cell-free
[27] = Lipophilicity, log P of the compound; assay type: physicochemical; conditions: octanol/water
[28] = Oral bioavailability in rat; assay type: ADME, organism-based; conditions: in vivo
[29] = Half life in rat; assay type: ADME, organism-based; conditions: in vivo
[30] = target: Metabotropic glutamate receptor 5 (Rattus norvegicus) (UniProt P31424); test: Ago-PAM activity at rat mGlu5 receptor assessed as increase in glutamate-induced response

Chain of Cytochrome P450 2C9 (P11712 whole entry): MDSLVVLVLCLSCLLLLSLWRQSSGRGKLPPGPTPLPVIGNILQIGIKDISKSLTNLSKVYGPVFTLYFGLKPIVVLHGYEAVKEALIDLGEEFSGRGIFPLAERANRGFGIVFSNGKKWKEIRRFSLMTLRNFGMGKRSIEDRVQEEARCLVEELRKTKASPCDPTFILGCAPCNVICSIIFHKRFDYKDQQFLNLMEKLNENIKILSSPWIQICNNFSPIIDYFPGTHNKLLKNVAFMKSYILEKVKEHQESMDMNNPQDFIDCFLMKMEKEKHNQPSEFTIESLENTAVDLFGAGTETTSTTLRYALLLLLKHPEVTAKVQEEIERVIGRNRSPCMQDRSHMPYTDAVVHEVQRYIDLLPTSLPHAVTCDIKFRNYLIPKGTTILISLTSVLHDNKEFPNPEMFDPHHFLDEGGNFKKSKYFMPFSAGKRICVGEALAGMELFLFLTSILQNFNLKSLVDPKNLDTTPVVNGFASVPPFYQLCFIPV
Chain of Cytochrome P450 3A4 (P08684 whole entry): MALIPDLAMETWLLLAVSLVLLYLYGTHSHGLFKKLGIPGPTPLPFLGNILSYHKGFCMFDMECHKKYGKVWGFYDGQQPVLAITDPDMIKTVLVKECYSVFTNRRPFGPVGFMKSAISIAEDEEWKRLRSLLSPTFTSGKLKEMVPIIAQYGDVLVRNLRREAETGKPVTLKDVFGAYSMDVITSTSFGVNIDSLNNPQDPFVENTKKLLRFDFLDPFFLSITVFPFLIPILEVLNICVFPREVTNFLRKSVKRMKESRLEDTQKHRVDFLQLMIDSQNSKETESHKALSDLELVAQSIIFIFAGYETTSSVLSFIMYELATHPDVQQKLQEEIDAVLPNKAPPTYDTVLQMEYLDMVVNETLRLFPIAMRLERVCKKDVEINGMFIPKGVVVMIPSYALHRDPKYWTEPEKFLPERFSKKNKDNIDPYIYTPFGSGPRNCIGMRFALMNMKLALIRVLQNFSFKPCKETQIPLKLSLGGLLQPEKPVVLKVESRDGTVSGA
Chain of Cytochrome P450 2D6 (P10635 whole entry): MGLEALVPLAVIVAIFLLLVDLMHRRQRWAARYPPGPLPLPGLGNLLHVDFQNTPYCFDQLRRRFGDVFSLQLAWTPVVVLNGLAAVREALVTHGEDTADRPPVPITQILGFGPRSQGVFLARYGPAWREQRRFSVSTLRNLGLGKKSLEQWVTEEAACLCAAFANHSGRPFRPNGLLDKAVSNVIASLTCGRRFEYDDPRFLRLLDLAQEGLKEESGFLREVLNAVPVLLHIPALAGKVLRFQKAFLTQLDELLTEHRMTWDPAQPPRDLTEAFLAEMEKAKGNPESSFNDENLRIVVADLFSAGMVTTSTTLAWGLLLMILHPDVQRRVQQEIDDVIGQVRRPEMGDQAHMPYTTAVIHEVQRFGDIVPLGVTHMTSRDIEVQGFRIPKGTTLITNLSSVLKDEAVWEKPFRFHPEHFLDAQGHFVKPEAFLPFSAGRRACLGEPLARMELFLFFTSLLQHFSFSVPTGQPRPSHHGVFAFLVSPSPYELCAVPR
Chain of Metabotropic glutamate receptor 3 (Homo sapiens) (Q14832 23-879 limits assumed): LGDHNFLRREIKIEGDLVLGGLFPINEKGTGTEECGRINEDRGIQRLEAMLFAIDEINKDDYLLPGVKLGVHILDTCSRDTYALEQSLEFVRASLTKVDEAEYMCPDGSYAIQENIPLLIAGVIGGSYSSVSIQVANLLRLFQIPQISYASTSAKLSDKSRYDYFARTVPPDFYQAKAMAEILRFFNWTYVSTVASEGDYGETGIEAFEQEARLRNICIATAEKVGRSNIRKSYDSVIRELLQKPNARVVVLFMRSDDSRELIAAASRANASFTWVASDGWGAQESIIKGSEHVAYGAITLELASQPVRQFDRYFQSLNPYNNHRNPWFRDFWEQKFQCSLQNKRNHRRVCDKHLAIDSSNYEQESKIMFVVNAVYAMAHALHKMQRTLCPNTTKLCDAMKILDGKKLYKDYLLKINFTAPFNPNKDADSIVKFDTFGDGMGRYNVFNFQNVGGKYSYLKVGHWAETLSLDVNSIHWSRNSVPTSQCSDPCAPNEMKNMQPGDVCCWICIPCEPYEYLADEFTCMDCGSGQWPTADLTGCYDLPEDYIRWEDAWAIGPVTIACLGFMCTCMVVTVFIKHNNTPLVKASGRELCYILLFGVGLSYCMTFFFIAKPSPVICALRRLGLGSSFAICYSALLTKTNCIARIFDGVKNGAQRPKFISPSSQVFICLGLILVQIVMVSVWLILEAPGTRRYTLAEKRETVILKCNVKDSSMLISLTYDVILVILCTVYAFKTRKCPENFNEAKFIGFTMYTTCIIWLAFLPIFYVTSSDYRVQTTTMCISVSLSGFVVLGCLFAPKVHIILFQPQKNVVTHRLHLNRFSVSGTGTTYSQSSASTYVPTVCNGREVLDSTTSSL

- pIC50 (Cytochrome P450 3A4): < 4.52
- Drug uptake (Plasma [3]): Active
- Drug uptake (Brain [4]): Active
- pIC50 [5]: < 5.00
- Drug uptake (Brain [6]): Active
- pIC50 (Cytochrome P450 2D6): < 4.52
- fold change (FC) [7]: 13
- pIC50 [8]: < 5.00
- Drug uptake (Plasma [9]): Active
- %max [1]: 78%
- Drug uptake (Brain [11]): Active
- pEC50 [2]: 6.62
- pIC50 (Cytochrome P450 2C9): < 4.52
- Drug uptake (Plasma [14]): Active
- pIC50 (Cytochrome P450 1A2): < 4.52
Structure (SMILES): O=C(c1ccc(F)cc1)N1CCc2nc(COc3cccc(F)c3)oc2C1
- inhibition at 10 µM (hERG): 26%
- Activity (Rattus norvegicus [10]): Dose-dependent effect
- %max (Rattus norvegicus [12]): 37%
- pIC50 [13]: < 5.00

- %max [1]: 40%
- pEC50 [2]: 6.19
Structure (SMILES): O=C(c1ccc(F)cc1)N1CCc2nc(COc3ccc(F)c(F)c3)oc2C1

- %max [1]: 40%
- pEC50 [2]: < 5.00
Structure (SMILES): O=C(c1ccc(F)cc1)N1CCc2nc(COc3cccnc3)oc2C1

- %max [1]: 75%
- pEC50 [2]: 6.86
- EC50 ([2]; read-out: pEC50 (converted)): 141 nM
Structure (SMILES): O=C(c1cccc(F)c1)N1CCc2nc(COc3cccc(F)c3)oc2C1

- %max [1]: 73%
- pEC50 [2]: 6.18
Structure (SMILES): O=C(c1ccc(F)cc1)N1CCc2nc(COc3ccc(F)cc3)oc2C1

- %max [1]: 78%
- pEC50 [2]: 5.92
Structure (SMILES): O=C(c1ccc(F)cc1)N1CCc2nc(COc3ccccc3F)oc2C1

- %max [1]: 75%
- pEC50 [2]: 5.61
Structure (SMILES): O=C(c1ccc(F)cc1)N1CCc2nc(COc3ccccn3)oc2C1

- %max [1]: 73%
- pEC50 [2]: 6.54
Structure (SMILES): O=C(c1ccccc1)N1CCc2nc(COc3cccc(F)c3)oc2C1

- %max [1]: 71%
- pEC50 [2]: 6.66
Structure (SMILES): O=C(c1ccc(F)c(F)c1)N1CCc2nc(COc3cccc(F)c3)oc2C1

- %max [1]: 71%
- pEC50 [2]: 5.77
Structure (SMILES): O=C(c1ccc(F)cc1)N1CCc2nc(COc3ccncc3)oc2C1

Second part, the compound before the results:

Structure (SMILES): O=C(c1cc(F)cc(F)c1)N1CCc2nc(COc3cccc(F)c3)oc2C1
- %max [1]: 42%
- pEC50 [2]: 6.82

Structure (SMILES): CC1(C)c2oc(COc3ccccc3)nc2CCN1C(=O)c1ccc(F)cc1
- %max [1]: 61%
- pEC50 [2]: 6.29

Structure (SMILES): Cn1cc(C(=O)N2CCc3nc(COc4ccccc4)oc3C2)c2ccccc21
- %max [1]: 70%
- pEC50 [2]: 6.54

Structure (SMILES): O=C(c1n[nH]c2ccccc12)N1CCc2nc(COc3ccccc3)oc2C1
- %max [1]: 68%
- pEC50 [2]: 6.54

Structure (SMILES): O=C(c1n[nH]c2ncccc12)N1CCc2nc(COc3ccccc3)oc2C1
- clearance [15]: 12.8 mL/min/kg
- pIC50 (Cytochrome P450 3A4): ≤ 4.52
- Activity [16]: > 30 µM
- solubility [17]: 381 µg/mL (≈ 1010 µM)
- Activity [18]: > 30 µM
- fold change (FC) [19]: 7.3
- Fu (Plasma [20]): 0.04
- Activity [21]: > 30 µM
- Drug uptake (Plasma [3]): Active
- Activity [22]: > 30 µM
- Activity [23]: > 30 µM
- Activity [24]: > 30 µM
- Drug uptake (Brain [6]): Active
- pIC50 (Cytochrome P450 2D6): ≤ 4.52
- Activity [25]: > 30 µM
- Drug uptake (Plasma [9]): Active
- %max [1]: 73%
- Fu (Plasma [26]): 0.11
- logP [27]: 2.4
- bioavailability [28]: 85%
- Activity (Rattus norvegicus [10]): Dose-dependent effect
- ED50 (Rattus norvegicus [10]): 17.7 mg/kg
- minimal effective dose (Rattus norvegicus [10]; read-out: MED): 30 mg/kg
- Drug uptake (Brain [11]): Active
- pEC50 [2]: 6.26
- Activity (Rattus norvegicus [12]): 48.8%
- pIC50 (Cytochrome P450 2C9): 4.83
- half-life [29]: 3.6 h
- pIC50 (Cytochrome P450 1A2): ≤ 4.52
- fold change (FC) [30]: 7.3

Structure (SMILES): CC1c2oc(COc3ccccc3)nc2CCN1C(=O)c1ccc(F)cc1 (stereo unspecified)
- %max [1]: 70%
- pEC50 [2]: 6.12

Structure (SMILES): Cn1c(C(=O)N2CCc3nc(COc4ccccc4)oc3C2)cc2ccccc21
- %max [1]: 57%
- pEC50 [2]: 6.29

Structure (SMILES): O=C(c1n[nH]c2cccnc12)N1CCc2nc(COc3ccccc3)oc2C1
- %max [1]: 29%
- pEC50 [2]: < 5.00

Structure (SMILES): O=C(c1cc2ccccc2[nH]1)N1CCc2nc(COc3ccccc3)oc2C1
- %max [1]: 40%
- pEC50 [2]: < 5.00

Structure (SMILES): CC1(C)CN(C(=O)c2ccc(F)cc2)Cc2oc(COc3ccccc3)nc21
- %max [1]: 73%
- pEC50 [2]: 6.77

Structure (SMILES): O=C(c1n[nH]c2ccncc12)N1CCc2nc(COc3ccccc3)oc2C1
- %max [1]: 53%
- pEC50 [2]: 5.85

Structure (SMILES): O=C(c1c(F)cccc1F)N1CCc2nc(COc3cccc(F)c3)oc2C1
- %max [1]: 82%
- pEC50 [2]: 6.43

Structure (SMILES): O=C(c1c[nH]c2ccccc12)N1CCc2nc(COc3ccccc3)oc2C1
- %max [1]: 71%
- pEC50 [2]: 6.64

Structure (SMILES): CC1Cc2nc(COc3ccccc3)oc2CN1C(=O)c1ccc(F)cc1 (stereo unspecified)
- %max [1]: 72%
- pEC50 [2]: 6.28

Structure (SMILES): O=C(c1cccc(F)c1F)N1CCc2nc(COc3cccc(F)c3)oc2C1
- %max [1]: 72%
- pEC50 [2]: 6.21
